US20040230033A1, “Substrate-derived affinity labels, and uses thereof” (priority 2003, published 2004)
“And” between values parts separate entries of the source, which are not always exact repeats. Identical values can stand only once. Where a SMILES comes first, the peptide text is derived from it. The star is where a group is joined. Biotin = O=C1N[C@H]2[C@H](CS[C@H]2CCCCC(=O)*)N1; Cbz = O=C(OCc1ccccc1)*; CHN2 = [N-]=[N+]=C*; Ahx = NCCCCCC(=O)O; CH2Cl = ClC*

Experiments:
[1] = molecular target: T1, SrtAΔN (Staphylococcus aureus, UniProt Q2FV99); assay: biochemical; format: biochemical, S. aureus; conditions: for k1 (first-order rate constant ki for covalent modification of SrtAΔN) / ki/Ki (specificity constant): 37° C., means ± S.E.M., four determinations; for k1 (first-order rate constant ki for covalent modification of SrtAΔN): pH 7.5, inhibitor 25-200 μM; for ki/Ki (specificity constant): pH 7.5
T1 construct: The region of the SrtA gene lacking the N-terminal membrane domain was then PCR-amplified; made in house; host or cells: E. coli HMS174(DE3)pLysS
Description: Using methods described previously, SrtAΔN activity was measured with the internally quenched substrate 4([4-(dimethylamino)phenyl]azo)-benzoyl(Dabcyl)-[…][(2-aminoethyl)-amino]napthalenel-sulphonyl (Edans) (prepared by standard Fmoc solid-phase synthesis) on a CytoFluor 4000® multi-well fluorimeter (PerSeptive Biosystems, Foster City, Calif., U.S.A.). All SrtAAN assays were performed at 37° C. (in triplicate) in 50 mM Tris/HCI (pH 7.5) containing 150 mM NaCl, 5 mM CaCl2, 5 mM NH,-Gly3 and 5 mM dithiothreitol (SrtA buffer). Wells contained approx. 10 pM of purified SrtAoN and 50 pM of substrate, in a final volume of 200, ul. The Km and kcat values for the SrtAΔN-catalysed cleavage of the internally quenched sub-strate were calculated by fitting the data points directly into the Michaelis-Menten equation for substrate hydrolysis, using GraFit® software (Erithacus Software, Horley, Surrey, U.K.).
Data from the curves were fitted, using non-linear regression analysis, to the integrated rate equation [P]=PJ1-e “-Pp”). This equation represents a first-order rate process for the formation of product P as a function of time, where kapp is the apparent rate constant and P. represents the concentration of product at a time approaching infinity. Using five different concentrations for each inhibitor (25, 50, 100, 150 and 200/μM), the values kapp and P∞were determined and utilized to evaluate the apparent second-order rate constant A for the inactivation of SrtAΔN in the presence of the substrate. The individual kinetic constants ki and Ki were then evaluated for both inhibitors from a plot of 1/A versus inhibitor concentration [I] [28], and the specificity constant k;/K; was calculated.
Data from the progress curves for SrtΔN-catalysed hydrolysis of the internally quenched substrate Dabcyl-[…]Edans in the presence of five different concentrations of inhibitors I and II (25, 50, 100, 150 and 200, W) were fitted by non-linear regression analysis to the integrated rate equation [P]=P∞(1-e^−kaPPt). The P∞. and kapp values were determined and used to evaluate the apparent second-order rate constant A for inactivation of SrtΔN in the presence of substrate. The individual kinetic constants k and K were then evaluated from a plot of 1/A versus inhibitor concentration [I], and the specificity constant for each inhibitor (kiKi) calculated. Values represent the means ±S.E.M. for four determinations.

[2] = molecular target: T1, SrtAΔN; assay: Affinity labelling of recombinant SrtAΔN, Western blot with streptavidin-alkaline phosphatase; format: binding, S. aureus
Description: (§1) To detect the affinity-labelled recombinant and wild-type SrtA, samples were analysed by Western-blot analysis [19,24-26]. Briefly, samples were treated with denaturing treatment buffer and the proteins separated by SDS/PAGE on 4-20% (w/v) linear gradient gels, followed by semi-dry transfer to a nitrocellulose membrane (Schleicher and Schiill, Dassel, Germany). After transfer, non-specific binding sites were quenched with a 3% (w/v) solution of BSA in 20 mM Tris/HCI (pH 7.4), containing 150 mM NaCl. To detect the biotin group, the membrane was incubated with a streptavidin-alkaline phosphatase conjugate (1:500). […] Bound antibody was detected with a goat anti-rabbit IgG alkaline phosphatase conjugate (1:20000).
In lane 3, the bound fraction eluted from the column with 10 mM imidazole (purified SrtAΔN) was also analysed.

[3] = molecular target: recombinant sortase SrtAΔN (His6-tagged) (Staphylococcus aureus (Oxford strain)) (UniProt Q2FV99)
[4] = molecular target: SrtB (Staphylococcus aureus, UniProt Q2FZE3); format: binding; conditions: crude S. aureus extracts, iron not added to culture media
Description: as §1

[5] = molecular target: T2, wild-type SrtA (Staphylococcus aureus, UniProt Q2FV99); assay: Affinity labelling of wild-type SrtA in crude S. aureus cell lysates, Western blot; format: binding; conditions: lysate probed with III; additional 24 kDa band, confirmed with antiserum
T2 construct: endogenous in cells; host or cells: S. aureus Oxford strain (ATCC 9144)
Description: For the disclosure of wild-type SrtA in S. aureus, a 50 ml overnight culture of the organism in LB broth was prepared. The bacterial cells were centrifuged at 3000 g for 15 min and the resulting pellet was washed in 5 ml of SrtA buffer. The washed bacteria were then resuspended in 1 ml of SrtA buffer containing 0.1 g of glass beads. The suspension was vortex-mixed continuously for 5 min followed by centrifugation at 1500 g for 15 min to remove the beads and unbroken cells. To 100 pl of purified SrtAΔN and the crude bacterial preparations, the inhibitor biotin-Ahx-Leu-Pro-Ala-Thr-CHN2 (III) was added (final concentration 50 pM) before incubation at 37° C. for 30 min.
To detect the affinity-labelled recombinant and wild-type SrtA, samples were analysed by Western-blot analysis. […] Bound antibody was detected with a goat anti-rabbit IgG alkaline phosphatase conjugate (1:20000).
Western-blotting experiments were performed with biotinAhx-Leu-Pro-Ala-Thr-CHN2 (III) to detect the presence of wildtype SrtA in crude cell lysates from S. aureus (Oxford strain; see FIG. 8B). […] In the duplicate lanes 3 and 4, which contained cell lysate “probed” with biotin-Ahx-Leu-Pro-Ala-Thr-CHN2 (III), the BCCP protein was detected along with an additional protein of apparent molecular mass 24 kDa. […]

[6] = molecular target: T3, cathepsin B (Homo sapiens, UniProt P07858); conditions: reference [30]; cited from earlier work
[7] = molecular target: T3, cathepsin B; conditions: cathepsin B/Cbz-Phe-Phe-CH2Cl versus SrtAΔN/II

Compound: CC(C)C[C@H](NC(=O)OCc1ccccc1)C(=O)N1CCC[C@H]1C(=O)N[C@@H](C)C(=O)N[C@H](C(=O)C=[N+]=[N-])[C@@H](C)O [Inhibitor I, Cbz-Leu-Pro-Ala-Thr-CHN2] (Cbz-LPAT-CHN2)
- Ki [1]: 220 nM
- k1 (first-order rate constant ki for covalent modification of SrtAΔN) [1]: 5.8×10^−3 min^−1 and 5.8 ± 0.6 × 10^−3 min^−1
- ki/Ki (specificity constant) [1]: 2.2×10^4 M^−1 − min^−1 and 2.2 ± 0.2 × 10^4 M^−1 − min^−1

Compound: CC(C)C[C@H](NC(=O)OCc1ccccc1)C(=O)N1CCC[C@H]1C(=O)N[C@@H](C)C(=O)N[C@H](C(=O)CCl)[C@@H](C)O [Inhibitor II, Cbz-Leu-Pro-Ala-Thr-CH2Cl] (Cbz-LPAT-CH2Cl)
- Ki [1]: 210 nM
- k1 (first-order rate constant ki for covalent modification of SrtAΔN) [1]: 1.1×10^−2 min^−1 and 1.1 ± 0.1 × 10^−2 min^−1
- ki/Ki (specificity constant) [1]: 5.3×10^4 M^−1 − min^−1 and 5.3 ± 0.6 × 10^4 M^−1 − min^−1
- covalently modifies SrtAΔN more rapidly than peptidyl-diazomethane I (by ki) ([1]; II versus I): approx. 2 fold
- inactivates SrtAΔN more rapidly than analogous diazomethane sequence I (by specificity constants) ([1]; II versus I): approx. 2 fold

Compound: O=C(O)c1cc[c]([Hg][OH])cc1 [pHMB, reference compound]
- effect of pre-treatment on SrtAΔN labelling by III ([2]; purified SrtAΔN pre-treated with thiol-directed inhibitor before probing with III): complete diminution of SrtAΔN labelling

Compound: Cbz-Leu-Pro-Ala-Thr-CH2Cl (II), peptidyl-chloromethane inhibitor (peptide)
- ki (first-order rate constant of inactivation) [3]: 0.011 min⁻¹
- ki/Ki (specificity constant) [3]: 883 M⁻¹ s⁻¹

Compound: Cbz-Leu-Pro-Ala-Thr-CHN2 (I), peptidyl-diazomethane inhibitor (peptide)
- ki (first-order rate constant of inactivation) [3]: 0.0058 min⁻¹
- ki/Ki (specificity constant) [3]: 367 M⁻¹ s⁻¹

Compound: {Biotin-Ahx}-LPAT-CHN2 [Inhibitor III]
- selectivity of labelling, SrtA versus SrtB [4]: selectively disclosed wild-type SrtA, but not SrtB
- detection of wild-type SrtA in crude S. aureus lysate [5]: affinity-labelled SrtA
- nature of binding of biotinylated inhibitor to SrtAΔN ([2]; 50 μM, 37° C., 30 min, approx. 30 kDa band labelled in crude E. coli lysate and purified fraction): active-site-directed

Compound: Cbz-Phe-Phe-CH,Cl
- ki for alkylation of the active-site cysteine residue of cathepsin B [6]: 12.5 min⁻¹
- ki greater than irreversible modification of SrtAΔN by peptidyl-chloromethane II [7]: approx. 1000 fold
